This assay has as its target P70S6K (T412E mutant) (Homo sapiens (Human), UniProt P23443, T412E). Put plainly: P70S6K enzyme assay. The following applies: 3 nM P70S6K T412E mutant, 24 μM ATP, 1 μM FITC-AHA-AKRRRLSSLRA-OH substrate peptide, 90 min at 25° C. The format is biochemical. As to the method:
The IC50 values reported for the compounds in the Experimental section were derived from the following protocol for the p70S6K enzyme assay.
P70S6K inhibitor compounds were diluted and plated in 96 well plates. A reaction mixture including the following components was then added to the compound plate to initiate the enzyme reaction; P70S6K (3 nM, T412E mutant, Millipore) was mixed with 24 μM ATP in an assay buffer containing 100 mM Hepes (pH 7.5), 5 mM MgCl2, 1 mM DTT, 0.015% Brij and 1 μM of the substrate peptide FITC-AHA-AKRRRLSSLRA-OH (derived from the S6 ribosomal protein sequence, FITC=fluorescein isothiocyanate, AHA=6-aminohexanoic acid). The reaction was incubated for 90 min at 25° C., before the addition of 10 mM EDTA to stop the reaction. The proportion of substrate and product (phosphorylated) peptide was analysed on a Caliper Life Sciences Lab Chip 3000, using a pressure of −1.4 psi, and upstream and downstream voltages of −3000 and −700 respectively. Product peaks were resolved before substrate peaks on the resulting chromatograms.

This passage reports IC50 results from patent publication US9321760B2 (Merck Patent GmbH, priority 2011, dated 2016).

P70S6K (T412E mutant), sequence (P23443 whole entry T412E): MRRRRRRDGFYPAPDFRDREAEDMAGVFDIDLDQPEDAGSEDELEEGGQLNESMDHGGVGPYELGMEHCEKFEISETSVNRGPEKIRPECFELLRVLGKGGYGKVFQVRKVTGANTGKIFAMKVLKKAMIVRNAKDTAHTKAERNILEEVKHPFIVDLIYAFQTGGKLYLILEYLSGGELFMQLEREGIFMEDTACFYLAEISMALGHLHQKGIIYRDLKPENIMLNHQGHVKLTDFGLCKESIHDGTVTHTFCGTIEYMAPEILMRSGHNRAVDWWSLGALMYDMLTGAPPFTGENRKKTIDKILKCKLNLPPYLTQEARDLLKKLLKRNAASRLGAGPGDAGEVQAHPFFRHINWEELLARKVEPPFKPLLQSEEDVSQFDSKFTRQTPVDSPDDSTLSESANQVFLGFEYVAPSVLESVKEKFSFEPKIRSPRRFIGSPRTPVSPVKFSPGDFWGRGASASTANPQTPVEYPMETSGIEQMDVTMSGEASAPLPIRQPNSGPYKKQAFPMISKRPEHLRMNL

As usually defined, the IC50 is the concentration at which inhibition is half-maximal. Low values mean inhibition by little substance, high ones a need for much substance. `NC[C@H](c1ccc(C(F)(F)F)cc1)C1CCN(c2ncnc(N)c2-c2cn[nH]c2)CC1` (single isomer, unassigned) [Example 56] came in with an IC50 of 22 nM.

Regarding `NC[C@@H](c1ccc(C(F)(F)F)cc1)C1CCN(c2ncnc(N)c2-c2cn[nH]c2)CC1` (single isomer, unassigned) [Example 57], the IC50 came to 4.7 nM.

The compound `Nc1ncnc(N2CCN(C(CN3CCC3)c3cccc(F)c3)CC2)c1-c1cn[nH]c1` (single isomer, unassigned) [Example 84, 6-{4-[2-Azetidin-1-yl-1-(3-fluoro-phenyl)-ethyl]-piperazin-1-yl}-5-(1H-pyrazol-4-yl)-pyrimidin-4-ylamine] returned an IC50 of 15000 nM.

As to `N#Cc1ccc(C(CN2CCC2)N2CCN(c3ncnc(N)c3-c3cn[nH]c3)CC2)cc1` (single isomer, unassigned) [Example 85, 4-(1-{4-[6-Amino-5-(1H-pyrazol-4-yl)-pyrimidin-4-yl]-piperazin-1-yl}-2-azetidin-1-yl-ethyl)-benzonitrile], it took 2800 nM to reach half-maximal inhibition (IC50).

`COC(=O)c1ccc(C(CN2CCC2)N2CCN(c3ncnc(N)c3-c3cn[nH]c3)CC2)cc1` (single isomer, unassigned) [Example 86, 4-(1-{4-[6-Amino-5-(1H-pyrazol-4-yl)-pyrimidin-4-yl]-piperazin-1-yl}-2-azetidin-1-yl-ethyl)-benzoic acid methyl ester] had an IC50 of 6400 nM. Compared with the last compound, the IC50 is about 2.3-fold higher.

On to `Nc1ncnc(N2CC[C@](N)(CNC(=O)c3ccc(F)cc3F)C2)c1-c1ccc(F)cc1` (single isomer, unassigned) [Example 249], for which half-maximal inhibition (IC50) required 5.9 nM.

`Nc1ncnc(N2CCN(C(CN3CCCC3)c3ccc(F)cc3)CC2)c1-c1ccc(F)cc1` (stereo in doubt) [Example 82, (R)5-(4-Fluorophenyl)-6{4-[1-(4-fluorophenyl)-2-pyrrolidin-1-yl-ethyl]-piperazin-1-yl}-pyrimidin-4-ylamine] yielded a half-inhibitory concentration (IC50) of 29 nM.

`Nc1ncnc(N2CCN(C(CN3CCCC3)c3ccc(F)cc3)CC2)c1-c1ccc(F)cc1` (stereo in doubt) [Example 83, (S)-5-(4-Fluorophenyl)-6{4-[1-(4-fluorophenyl)-2-pyrrolidin-1-yl-ethyl]-piperazin-1-yl}-pyrimidin-4-ylamine] had an IC50 of 1000 nM.

For `NCC(c1ccc(C(F)(F)F)cc1)N1CCN(c2ncnc(N)c2Br)CC1` (stereo not shown) [Example 1, 6-{4-[2-Amino-1-(4-trifluoromethyl-phenyl)-ethyl]-piperazin-1-yl}-5-bromo-pyrimidin-4-ylamine], half-maximal inhibition (IC50) was put at 5.8 nM.

On to `NCC(c1ccc(C(F)(F)F)cc1)N1CCN(c2ncnc(N)c2-c2ccc(F)cc2)CC1` (stereo not shown) [Example 2, 6-{4-[2-Amino-1-(4-trifluoromethyl-phenyl)-ethyl]-piperazin-1-yl}-5-(4-fluoro-phenyl)-pyrimidin-4-ylamine], for which half-maximal inhibition (IC50) was put at 2.2 nM.

Turning to `NC[C@H](c1ccc(C(F)(F)F)cc1)N1CCN(c2ncnc(N)c2-c2ccc(F)cc2)CC1` [Example 3, 6-{4-[(S)-2-Amino-1-(4-trifluoromethyl-phenyl)-ethyl]-piperazin-1-yl}-5-(4-fluoro-phenyl)-pyrimidin-4-ylamine], the IC50 was 2.6 nM.

`NC[C@@H](c1ccc(C(F)(F)F)cc1)N1CCN(c2ncnc(N)c2-c2ccc(F)cc2)CC1` [Example 4, 6-{4-[(R)-2-Amino-1-(4-trifluoromethyl-phenyl)-ethyl]-piperazin-1-yl}-5-(4-fluoro-phenyl)-pyrimidin-4-ylamine] came in with an IC50 of 4.5 nM.

On to `NCC(c1ccccc1)N1CCN(c2ncnc(N)c2Br)CC1` (stereo not shown) [Example 5, 6-[4-(2-Amino-1-phenyl-ethyl)-piperazin-1-yl]-5-bromo-pyrimidin-4-ylamine], for which the IC50 is 330 nM.

For `NCC(c1ccccc1)N1CCN(c2ncnc(N)c2-c2ccc(F)cc2)CC1` (stereo not shown) [Example 6, 6-[4-(2-Amino-1-phenyl-ethyl)-piperazin-1-yl]-5-(4-fluoro-phenyl)-pyrimidin-4-ylamine], the IC50 is 6.3 nM.

Regarding `NCC(c1ccc(C(F)(F)F)cc1)N1CCN(c2ncnc(N)c2-c2cn[nH]c2)CC1` (stereo not shown) [Example 7, 6-{4-[2-Amino-1-(4-trifluoromethyl-phenyl)-ethyl]-piperazin-1-yl}-5-(1H-pyrazol-4-yl)-pyrimidin-4-ylamine], 2.8 nM corresponded to half-maximal inhibition (IC50).

For the compound `NC[C@H](c1ccc(C(F)(F)F)cc1)N1CCN(c2ncnc(N)c2-c2cn[nH]c2)CC1` [Example 8, (S)-6-(4-(2-amino-1-(4-(trifluoromethyl)phenyl)ethyl)piperazin-1-yl)-5-(1H-pyrazol-4-yl)pyrimidin-4-amine], half-maximal inhibition (IC50) was put at 3.4 nM.

Regarding `NC[C@@H](c1ccc(C(F)(F)F)cc1)N1CCN(c2ncnc(N)c2-c2cn[nH]c2)CC1` [Example 9, (R)-6-(4-(2-amino-1-(4-(trifluoromethyl)phenyl)ethyl)piperazin-1-yl)-5-(1H-pyrazol-4-yl)pyrimidin-4-amine], half-maximal inhibition (IC50) required 5.7 nM. Against the preceding compound, the IC50 is about 1.7-fold higher.

`Nc1ncnc(N2CCN(C(CN3CCCC3)c3ccc(C(F)(F)F)cc3)CC2)c1-c1ccc(F)cc1` (stereo not shown) [Example 10, 5-(4-fluorophenyl)-6-(4-(2-(pyrrolidin-1-yl)-1-(4-(trifluoromethyl)-phenyl)-ethyl)-piperazin-1-yl)-pyrimidin-4-amine]: half-maximal inhibition (IC50) was put at 31 nM.

In turn, `Nc1ncnc(N2CCN(C(CN3CCCCC3)c3ccc(C(F)(F)F)cc3)CC2)c1Br` (stereo not shown) [Example 11, 5-bromo-6-(4-(2-(piperidin-1-yl)-1-(4-(trifluoromethyl)phenyl)ethyl)piperazin-1-yl)pyrimidin-4-amine] returned an IC50 of 280 nM.

The compound `Nc1ncnc(N2CCN(C(CN3CCCCC3)c3ccc(C(F)(F)F)cc3)CC2)c1-c1ccc(F)cc1` (stereo not shown) [Example 12, 5-(4-Fluoro-phenyl)-6-{4-[2-piperidin-1-yl-1-(4-trifluoromethyl-phenyl)-ethyl]-piperazin-1-yl}-pyrimidin-4-ylamine] came in with an IC50 of 18 nM.

In turn, `Nc1ncnc(N2CCN(Cc3ccc(C(F)(F)F)cc3)CC2)c1-c1ccc(F)cc1` [Example 13, 5-(4-Fluoro-phenyl)-6-[4-(4-trifluoromethyl-benzyl)-piperazin-1-yl]-pyrimidin-4-ylamine] yielded an IC50 of 7.2 nM.

In turn, `CN(C)CC(c1ccc(C(F)(F)F)cc1)N1CCN(c2ncnc(N)c2Br)CC1` (stereo not shown) [Example 14, 5-bromo-6-(4-(2-(dimethylamino)-1-(4-(trifluoromethyl)phenyl)ethyl)piperazin-1-yl)pyrimidin-4-amine] had an IC50 of 38 nM. Compared with the last compound, the IC50 is about 5.3-fold higher.

With `CN(C)CC(c1ccc(C(F)(F)F)cc1)N1CCN(c2ncnc(N)c2-c2ccc(F)cc2)CC1` (stereo not shown) [Example 15, 6-(4-(2-(dimethylamino)-1-(4-(trifluoromethyl)phenyl)ethyl)piperazin-1-yl)-5-(4-fluorophenyl)pyrimidin-4-amine], the IC50 was 4.9 nM.

For the compound `CN(C)C[C@H](c1ccc(C(F)(F)F)cc1)N1CCN(c2ncnc(N)c2-c2ccc(F)cc2)CC1` [Example 16, (S)-6-(4-(2-(dimethylamino)-1-(4-(trifluoromethyl)phenyl)ethyl)piperazin-1-yl)-5-(4-fluorophenyl)pyrimidin-4-amine], the IC50 turned out to be 4.9 nM.

`CN(C)C[C@@H](c1ccc(C(F)(F)F)cc1)N1CCN(c2ncnc(N)c2-c2ccc(F)cc2)CC1` [Example 17, (R)-6-(4-(2-(dimethylamino)-1-(4-(trifluoromethyl)phenyl)ethyl)piperazin-1-yl)-5-(4-fluorophenyl)pyrimidin-4-amine] returned an IC50 of 1.7 nM. This IC50 is about 2.9-fold lower than that of the compound before.

In the case of `CN(C)CCNC(=O)C(c1ccc(C(F)(F)F)cc1)N1CCN(c2ncnc(N)c2-c2ccc(F)cc2)CC1` (stereo not shown) [Example 18, 2-(4-(6-amino-5-(4-fluorophenyl)pyrimidin-4-yl)piperazin-1-yl)-N-(2-(dimethylamino)ethyl)-2-(4-(trifluoromethyl)phenyl)acetamide], the IC50 worked out at 18 nM.

Regarding `C=Cc1c(N)ncnc1N1CCN(C(CN)c2ccc(C(F)(F)F)cc2)CC1` (stereo not shown) [Example 19, 6-(4-(2-amino-1-(4-(trifluoromethyl)-phenyl)ethyl)piperazin-1-yl)-5-vinylpyrimidin-4-amine], the IC50 worked out at 19 nM.

With `CN(C)CC(c1ccc(C(F)(F)F)cc1)N1CCN(c2ncnc(N)c2-c2ccc(N)nc2)CC1` (stereo not shown) [Example 20, 5-(6-aminopyridin-3-yl)-6-(4-(2-(dimethylamino)-1-(4-(trifluoromethyl)-phenyl)ethyl)piperazin-1-yl)pyrimidin-4-amine], the half-maximal inhibitory concentration (IC50) amounted to 69 nM. This IC50 is about 3.6-fold higher than that of the compound before.

Take `C=Cc1c(N)ncnc1N1CCN(C(CN(C)C)c2ccc(C(F)(F)F)cc2)CC1` (stereo not shown) [Example 21, 6-(4-(2-(dimethylamino)-1-(4-(trifluoromethyl)phenyl)ethyl)piperazin-1-yl)-5-vinylpyrimidin-4-amine]: the IC50 worked out at 35 nM.

`CN(C)CC(c1ccc(C(F)(F)F)cc1)N1CCN(c2ncnc(N)c2-c2ccc(C(C)(C)O)cc2)CC1` (stereo not shown) [Example 22, 2-(4-(4-amino-6-(4-(2-(dimethylamino)-1-(4-(trifluoromethyl)phenyl)ethyl)-piperazin-1-yl)pyrimidin-5-yl)phenyl)propan-2-ol] returned an IC50 of 20 nM.

`COC(=O)c1ccc(-c2c(N)ncnc2N2CCN(C(CN(C)C)c3ccc(C(F)(F)F)cc3)CC2)cc1` (stereo not shown) [Example 23, Methyl 4-(4-amino-6-(4-(2-(dimethylamino)-1-(4-(trifluoromethyl)phenyl)ethyl)piperazin-1-yl)pyrimidin-5-yl)benzoate] displayed an IC50 of 12 nM.
